Results taken from paper PMC6749418, “SAR by Space: Enriching Hit Sets from the Chemical Space” (Molecules, 2019).
Read-outs that look alike come from different tables or passages of the source.

What was measured:
[1] = system: BRD4; conditions: cited from earlier work
[2] = biological target: T1, BRD4 (BD1+BD2) (Homo sapiens, UniProt O60885); assay: BRD4 (BD1+BD2) TR-FRET assay, IC50 measurement; assay type: biochemical; conditions: average from three independent experiments
T1 construct: BRD4 (BD1+BD2) TR-FRET assay kit from BPS Bioscience; purchased BPS Bioscience
Protocol: Dose-response curves were built for these compounds, and for 5 of them, IC50 values were determined in TR-FRET assay as an average from three independent experiments (Table 1). Comparing the resulting hit molecules with the corresponding initial queries, one can see considerable structural differences. […] The relatively high FTrees similarity explains why they were not missed in the REAL Space search: The molecules still have very similar pharmacophoric properties in a similar arrangement. […] This is exemplary shown in Figure 7 for compound 20 and its respective query molecule 15. The shift of the nitrogen atom to the β position of the pyridine ring, as well as the different linker length, led to a completely flipped binding mode. It is also important to stress that the starting points of this study which led to the hits (compounds 19–22) had no significant activity against BRD4 in the functional (TR-FRET) assay; they were identified only in the binding assay (TSA).
All TR-FRET assays and IC50 measurements were performed using BRD4 (BD1+BD2) TR-FRET assay kit from BPS Bioscience (www.bpsbioscience.com) following the standard procedure.

[3] = system: T2, bromodomain 1 of BRD4; assay: Thermal shift assay (TSA) with recombinant, truncated, His-tagged bromodomain 1 of BRD4; assay type: binding; conditions: 1% DMSO, 4 μM protein; for ΔTm (°C) at 10 μM: compound at 10 μM; for ΔTm (°C) at 20 μM: compound at 20 μM; for ΔTm (°C) at 40 μM: compound at 40 μM
T2 construct: made in house
Protocol: The compounds were synthesized according to the standard protocols for typical parallel synthesis transformations, including amide/sulfonamide coupling, reductive amination, urea synthesis, arylation/alkylation, etc. The synthesis was completed in a three-week period and all the 32 compounds could actually be synthesized. The products obtained were subjected to thermal shift assay (TSA) using recombinant, truncated, His-tagged bromodomain 1 of BRD4 [28] at 40, 20, and 10 μM (Figure 4). The hit selection criteria followed those described in our previous publication:|ΔTm| ≥ |ΔTm,av| + 3|σ(ΔTm)|(1) |ΔTm| ≥ 2|σ(Tm,DMSO)|(2) where ΔTm—thermal shift caused by the compound; ΔTm,av—mean thermal shift value within the plate; σ(ΔTm)—standard deviation of the thermal shift values within the plate; σ(Tm,DMSO)—standard deviation of the melting temperature values obtained for the control samples.
All tested compounds were obtained from Enamine Ltd. (Kyiv, Ukraine). Stock solutions of the tested compounds were prepared in 100% DMSO and were stored at −20 °C until use. The bromodomain 1 of BRD4 was expressed using pNIC28-Bsa4 plasmid vector with an insert representing domain 1 of BRD4 (44–168 AA, sequence entry O60885.1 in UniProtKB Database), N-terminus His6-tag and 16-amino acid linker.
All thermal shift assay (TSA) experiments with BRD4 protein were performed using ViiA™7 real-time PCR System equipped with 384-well heat block (Applied Biosystems, Waltham, MA, USA). General TSA methodology was adopted from the literature and experimentally modified in order to optimize conditions for measuring BRD4 melting temperature shifts upon interaction with small molecules. The optimal buffer composition for the TSA procedure was determined as described previously. Buffer consisting of 50 mM Phosphate-Na, 100 mM NaCl, pH = 7.5 was selected for BRD4 screening in this study. Purified BRD4 protein was pre-mixed with SYPRO Orange dye (Thermo Fischer Scientific, Cat. S6650, 5000x stock, Waltham, MA, USA) to prepare a master mix at 4 μM protein and 6× dye concentrations. Tested compounds were added to the protein-dye master mix at 40, 20, or 10 μM at 1% final DMSO concentration and incubated at 4 °C for 1 h in MicroAmp® optical 384-well reaction plates (ThermoFisher, Cat. 4309849, Waltham, MA, USA) sealed with optical sealing film (ThermalSeal RT2, Excel Scientific, Cat. TS-RT2, Victorville, CA, USA). The volumes of all reaction mixtures were 10 µL ([…]). The reaction plates were then kept at ambient temperature (22–24 °C) for an additional 15 min to ensure protein-compound interactions. Thermal scanning was performed by raising the temperature to 40 °C at 1.6 °C/min without signal detection followed by 40 °C to 90 °C temperature ramp at 0.05 °C/s with constant fluorescence intensity reading at 1-sec intervals using EX470/EM623 nm filter set.
Primary screening of the whole test set of 49 compounds was carried out in singletons. The raw data of dye fluorescence intensity change upon protein melt were exported using the ViiA7 RUO software (Applied Biosystems/Thermo Fischer Scientific). Further data visualization, curve fitting, melting temperature calculations on the raw fluorescence data were performed using custom-made Microsoft Excel scripts. The peak of the first derivative for the fluorescence curve was used to define melting temperature (Tm). Averaged Tm values for the control wells containing only the protein, dye and 1% DMSO were used as a reference point to determine melting temperature shifts (ΔTm).

[4] = investigational BRD4 inhibitors, Figure 1

| Compound | IC50 [2] | IC50 ([1]; known BRD4 inhibitors, Figure 6) | ΔTm (°C) at 10 μM [3] | ΔTm (°C) at 20 μM [3] | ΔTm (°C) at 40 μM [3] | IC50 [1, 4] | inhibition at 10 μM ([1]; 10 μM, known BRD4 inhibitors, Figure 6) |
| --- | --- | --- | --- | --- | --- | --- | --- |
| O=C1Nc2ccc(NS(=O)(=O)C3CCCCC3)cc2C12CCC2 [compound 31] |  | < 0.15 µM |  |  |  |  |  |
| CCS(=O)(=O)Nc1ccc(Oc2ccc(F)cc2F)c(-c2cn(C)c(=O)c3[nH]ccc23)c1 [mivebresib, Mivebresib] |  |  |  |  |  | 0.001 to 0.002 µM |  |
| COc1nnc2ccc(N3CCC(c4ccc(OCCN5CCN(C)C(=O)[C@H]5C)cc4)CC3)nn12 [AZD5153] |  |  |  |  |  | 0.005 µM |  |
| Cc1noc2c1-c1ccccc1C(c1ccc(Cl)cc1)=N[C@H]2CC(N)=O [CPI-0610] |  |  |  |  |  | 0.018 µM |  |
| O=C1CCc2cc(NC(=O)Nc3ccc(C(F)(F)F)cc3)ccc2N1 [compound 32] |  |  |  |  |  |  | up to 92% |
| CC1(C)C(=O)Nc2ccc(C(=O)Nc3cc(Cl)c(O)cc3F)cc21 [C00002] | 10.7 µM |  | 0.31 ± 0.05 °C | 0.39 ± 0.08 °C | 0.71 ± 0.01 °C |  |  |
| CC1CC(=O)N(C)c2ccc(NC(=O)NCc3nc(N(C)C)no3)cc21 (stereo not shown) [C00004] | 26.4 µM |  | 0.30 ± 0.10 °C | 0.72 ± 0.41 °C | 1.52 ± 0.59 °C |  |  |

The next lines start with results.

| IC50 [2] | Compound | IC50 ([1]; known BRD4 inhibitors, Figure 6) | ΔTm (°C) at 10 μM [3] | ΔTm (°C) at 20 μM [3] | ΔTm (°C) at 40 μM [3] | IC50 [1, 4] | inhibition at 10 μM ([1]; 10 μM, known BRD4 inhibitors, Figure 6) |
| --- | --- | --- | --- | --- | --- | --- | --- |
| 141 µM | CCC1Oc2cc(C(C)NC(=O)Cc3c(C)nc4[nH][nH]c(=O)c4c3C)ccc2NC1=O (stereo not shown) [C00009] |  | 0.29 ± 0.01 °C | 0.44 ± 0.06 °C | 0.53 ± 0.25 °C |  |  |
| 68.2 µM | CC(C)(CNc1ccc2nnc(C(F)(F)F)n2n1)c1cccnc1 [C00007] |  | 0.34 ± 0.19 °C | 0.78 ± 0.14 °C | 1.56 ± 0.05 °C |  |  |
| 44.6 µM | CC(C)(C)c1nnc2ccc(NCC(C)(C)c3cccnc3)nn12 [C00006] |  | 0.34 ± 0.13 °C | 0.98 ± 0.22 °C | 1.33 ± 0.17 °C |  |  |
